In patent publication US20240057587A1, “ORGANIC AMMONIUM SALT AND HYDROGEN-BONDING MATERIAL TREATMENT AGENT USING SAME” (MIYOSHI OIL & FAT CO.,LTD., priority 2019, published 2024):
Where two headings read alike, the source gives them in different places.

Legend:
urease [1] = target: T1, urease (Canavalia ensiformis, UniProt P07374); assay type: biochemical, sword bean
urease [2] = target: T1, urease; assay type: biochemical, sword bean; remark: listed apart in the source
cytochrome C [3] = target: T2, cytochrome C (Equus caballus, UniProt P00004); test: Protein long-term stability (IR and UV spectrum), solid sample; design: species or system Horse
T2 construct: a reagent produced by NACALAI TESQUE, INC; (Horse Heart, molecular weight 12384) was used; purchased NACALAI TESQUE, INC; host or cells: horse heart (tissue origin)
T2 sequence (P00004 whole entry): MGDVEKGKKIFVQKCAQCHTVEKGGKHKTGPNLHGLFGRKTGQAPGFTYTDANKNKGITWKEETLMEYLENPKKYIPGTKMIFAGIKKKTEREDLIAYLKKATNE

cytochrome C [4] = target: T2, cytochrome C; test: Protein long-term stability, 50% aqueous solution; design: species or system Horse
Method: At first, changes in amide absorption by IR spectrum were precisely observed, and there were confirmed the higher-order structures of protein (turn, α-helix, random coil, β-sheet). The amide I region (1,600 to 1,700 cm^−1) and the amide II region (1,500 to 1,600 cm^−1) were measured by ATR method using a Fourier transform infrared spectrophotometer (FT/IR-6100 by JASCO Corporation), and peaks were then detected based on a difference(s) between a cytochrome C-free organic ammonium salt sample (blank) and a cytochrome C-containing organic ammonium salt sample (sample).
Further, the activity state of cytochrome C (Fe^2+: reduced form, Fe^3+: oxidized form) was confirmed via absorptions in UV spectrum. The measurement was conducted using an ultraviolet-visible spectrophotometer and a quartz cell having an optical path width of 2 mm, immediately after diluting the cytochrome C-containing organic ammonium salt sample to 1% with a 50 mM phosphate buffer of pH 7.4 (prepared using 50 mM potassium dihydrogen phosphate and 50 mM dipotassium hydrogen phosphate).

urease [5] = target: T1, urease; assay type: biochemical, sword bean; remark: listed apart in the source
[6] = Metal oxide dispersibility test (zirconium oxide); assay type: physicochemical; conditions: 0.25 g compound, 0.50 g water, 0.10 g zirconium oxide (IV); visual
[7] = Metal oxide dispersibility test (titanium oxide); assay type: physicochemical; conditions: 0.25 g compound, 0.50 g water, 0.10 g titanium oxide (IV); visual
[8] = Organic dye dispersibility test; assay type: physicochemical; conditions: 0.2 g compound, 0.7 g water, 0.1 g Vali Fast Black 3830; ultrasonic dispersion; after 24 hours; visual
[9] = dispersion liquid dried at 50° C. under reduced pressure for three hours, 0.50 g water added, remixed; visual
[10] = dispersion liquid dried at 50° C. under reduced pressure for three hours, 0.50 g water added, remixed; visual; remark: listed apart in the source
[11] = Vali Fast Black 3830 dispersion liquid dried at 50° C. under reduced pressure for three hours, 0.7 g water added, remixed; visual
[12] = 0.25 g compound, 0.50 g water, 0.10 g zinc oxide; visual
[13] = 0.25 g compound, 0.50 g water, 0.10 g barium titanate; visual
[14] = solid sample, 40° C., 80% RH, after 30 days, Stabilizer:Enzyme = 0.1:1
[15] = solid sample, 40° C., 80% RH, after 30 days, Stabilizer:Enzyme = 1:1
[16] = solid sample, 40° C., 80% RH, after 30 days, Stabilizer:Enzyme = 10:1
[17] = urease in 50 wt % aqueous solution of compound, 40° C., 80% RH, after 30 days, Stabilizer:Enzyme = 1:1
[18] = cytochrome C, solid sample, 40° C., 80% RH, after 30 days, Stabilizer:Protein = 0.1:1
[19] = cytochrome C, solid sample, 40° C., 80% RH, after 30 days, Stabilizer:Protein = 1:1
[20] = cytochrome C, solid sample, 40° C., 80% RH, after 30 days, Stabilizer:Protein = 10:1
[21] = cytochrome C in 50 wt % aqueous solution of compound, 40° C., after 30 days, 1:1
[22] = urease, solid sample mixed by mortar, 40° C., 80% RH, after 30 days, 1:1
[23] = urease, solid sample, solvent distilled away from dissolution solution, 40° C., 80% RH, after 30 days, 1:1

T1 sequence (P07374 whole entry, looked up): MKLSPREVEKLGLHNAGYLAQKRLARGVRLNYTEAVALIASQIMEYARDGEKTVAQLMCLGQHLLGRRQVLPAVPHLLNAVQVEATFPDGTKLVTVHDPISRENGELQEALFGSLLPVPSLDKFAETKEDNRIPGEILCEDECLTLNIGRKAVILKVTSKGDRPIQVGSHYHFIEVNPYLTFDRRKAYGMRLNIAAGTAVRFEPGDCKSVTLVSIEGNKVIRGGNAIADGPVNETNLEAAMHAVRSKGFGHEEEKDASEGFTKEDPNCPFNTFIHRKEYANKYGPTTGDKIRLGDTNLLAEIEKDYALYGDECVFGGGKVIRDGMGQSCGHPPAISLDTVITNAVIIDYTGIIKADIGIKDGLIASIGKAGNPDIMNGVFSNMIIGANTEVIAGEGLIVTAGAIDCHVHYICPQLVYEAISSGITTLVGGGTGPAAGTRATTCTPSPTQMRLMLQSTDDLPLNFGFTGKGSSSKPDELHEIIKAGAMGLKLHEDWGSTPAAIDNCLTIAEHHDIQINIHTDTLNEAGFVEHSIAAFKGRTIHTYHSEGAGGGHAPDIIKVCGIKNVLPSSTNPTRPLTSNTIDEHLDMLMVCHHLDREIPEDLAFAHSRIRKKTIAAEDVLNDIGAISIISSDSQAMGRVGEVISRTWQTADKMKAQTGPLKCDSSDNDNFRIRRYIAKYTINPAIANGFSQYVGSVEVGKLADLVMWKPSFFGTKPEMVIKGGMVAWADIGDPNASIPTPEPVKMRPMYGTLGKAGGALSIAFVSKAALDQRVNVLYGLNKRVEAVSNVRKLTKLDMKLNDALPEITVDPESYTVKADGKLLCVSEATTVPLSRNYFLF

Row | Compound | Enzyme activity retention rate(%) (after 30 days) Stabilizer: Enzyme = 0.1:1 (urease [1]; [14]) | Enzyme activity retention rate(%) (after 30 days) Stabilizer: Enzyme = 1:1 (urease [1]; [15]) | Enzyme activity retention rate(%) (after 30 days) Stabilizer: Enzyme = 10:1 (urease [1]; [16]) | Enzyme activity retention rate(%) (after 30 days) Stabilizer: Enzyme = 1:1 (urease [2]; [17]) | Protein long-term stability (after 30 days) Stabilizer: Protein = 0.1:1 (cytochrome C [3]; [18]) | Protein long-term stability (after 30 days) Stabilizer: Protein = 1:1 (cytochrome C [3]; [19]) | Protein long-term stability (after 30 days) Stabilizer: Protein = 10:1 (cytochrome C [3]; [20]) | Protein long-term stability (after 30 days) Stabilize:Protein = 1:1 (cytochrome C [4]; [21]) | Enzyme activity retention rate (%) (after 30 days) Stabilizer:Enzyme = 1:1, Mixed by mortar (urease [5]; [22]) | Enzyme activity retention rate (%) (after 30 days) Stabilizer:Enzyme = 1:1, Solvent distilled away from dissolution solution (urease [5]; [23]) | Enzyme activity retention rate(%) (after 30 days) Stabilizer: Enzyme = 0.1:1 (urease [1]) | Enzyme activity retention rate(%) (after 30 days) Stabilizer: Enzyme = 1:1 (urease [1]) | Enzyme activity retention rate(%) (after 30 days) Stabilizer: Enzyme = 10:1 (urease [1]) | Enzyme activity retention rate(%) (after 30 days) Stabilizer: Enzyme = 1:1 (urease [2]) | Enzyme activity retention rate (%) (after 30 days) Stabilizer:Enzyme = 1:1, Mixed by mortar (urease [5]) | Enzyme activity retention rate (%) (after 30 days) Stabilizer:Enzyme = 1:1, Solvent distilled away from dissolution solution (urease [5]) | Protein long-term stability (after 30 days) Stabilizer: Protein = 0.1:1 (cytochrome C [3]) | Protein long-term stability (after 30 days) Stabilizer: Protein = 1:1 (cytochrome C [3]) | Protein long-term stability (after 30 days) Stabilizer: Protein = 10:1 (cytochrome C [3]) | also measured
1 | NCC(O)C(O)C(O)C(O)CO (centres unmarked) [Working example 29] | 5% | 18% | 21% | 11% | ◯ | ◯ | ◯ | ○ | 0% | 18% |  |  |  |  |  |  |  |  |  | 
2 | NC(CO)(CO)CO [Working example 3] | 20% | 50% | 53% | 32% | ◯ | ◯ | ◯ | ○ ○ ○ | 11% | 50% |  |  |  |  |  |  |  |  |  | 
3 | CCCCn1cc[n+](C)c1.[Br-] [Comparative example 3, BMI-Br, reference compound] |  |  |  |  | × | × | × |  |  |  | 0% | 0% | 0% | 0% | 0% | 0% |  |  |  | 
4 | NC(CO)(CO)CO [Working example 109] |  |  |  |  |  |  |  |  |  |  |  |  |  |  |  |  |  |  |  | Zirconium oxide dispersibility [6]: ○ ○ ○ ○; Titanium oxide dispersibility [7]: ○ ○ ○ ○; Dye dispersibility [8]: ○ ○ ○ ○; Redispersibility Zirconium oxide [9]: ○ ○ ○ ○; Redispersibility Titanium oxide [10]: ○ ○ ○ ○; Redispersibility Dye [11]: ○ ○ ○ ○; Zinc oxide dispersibility [12]: ○ ○ ○ ○; Barium titanate dispersibility [13]: ○ ○ ○ ○
5 | O=C[C@H](O)[C@@H](O)[C@H](O)[C@H](O)CO [Comparative example 4, Glucose, reference compound] |  |  |  |  | × | × | × |  |  |  | 0% | 0% | 0% | 0% | 0% | 0% |  |  |  | 
6 | CC(O)C(=O)O.CCCCN(CCCC)CCCC [Comparative example 1, Tributyl Ammonium Lactate, reference compound] |  |  |  |  |  |  |  |  |  |  | 0% | 0% | 0% | 0% | 0% | 0% | × | × | × | 
7 | NC(CO)(CO)CO.O=C(O)c1ccccc1 [Working example 60] | 7% | 20% | 29% | 21% |  |  |  |  | 0% | 20% |  |  |  |  |  |  | ◯ | ◯ | ◯ | Protein long-term stability (after 30 days) Stabilize:Protein = 1:1 (cytochrome C [4]): ○ ○ ○
8 | CC(=O)[O-].C[N+](C)(C)CCO [Comparative example 2, Choline Acetate, reference compound] | 2% | 3% | 0% | 2% |  |  |  |  | 0% | 3% |  |  |  |  |  |  | × | × | × | 
9 | OCCNCCO [Working example 24] | 9% | 25% | 25% | 10% | ◯ | ◯ | ◯ | ○ | 5% | 25% |  |  |  |  |  |  |  |  |  | 
10 | Br.NC(CO)(CO)CO [Working example 78] |  |  |  |  |  |  |  |  |  |  | 3% | 4% | 18% | 3% | 0% | 24% | ◯ | ◯ | ◯ | Protein long-term stability (after 30 days) Stabilize:Protein = 1:1 (cytochrome C [4]): ○ ○ ○
11 | NC(CO)(CO)CO [Working example 83] | 16% | 24% | 38% | 20% | ◯ | ◯ | ◯ | ○ ○ ○ | 0% | 24% |  |  |  |  |  |  |  |  |  | 
